In assay [1] the target is T1, Human SLC6A14 (Homo sapiens, UniProt Q9UN76).
T1 construct: expressed in transfected cells; host or cells: Xenopus laevis oocytes, microinjected with human SLC6A14 cRNA
T1 sequence (Q9UN76 1-642): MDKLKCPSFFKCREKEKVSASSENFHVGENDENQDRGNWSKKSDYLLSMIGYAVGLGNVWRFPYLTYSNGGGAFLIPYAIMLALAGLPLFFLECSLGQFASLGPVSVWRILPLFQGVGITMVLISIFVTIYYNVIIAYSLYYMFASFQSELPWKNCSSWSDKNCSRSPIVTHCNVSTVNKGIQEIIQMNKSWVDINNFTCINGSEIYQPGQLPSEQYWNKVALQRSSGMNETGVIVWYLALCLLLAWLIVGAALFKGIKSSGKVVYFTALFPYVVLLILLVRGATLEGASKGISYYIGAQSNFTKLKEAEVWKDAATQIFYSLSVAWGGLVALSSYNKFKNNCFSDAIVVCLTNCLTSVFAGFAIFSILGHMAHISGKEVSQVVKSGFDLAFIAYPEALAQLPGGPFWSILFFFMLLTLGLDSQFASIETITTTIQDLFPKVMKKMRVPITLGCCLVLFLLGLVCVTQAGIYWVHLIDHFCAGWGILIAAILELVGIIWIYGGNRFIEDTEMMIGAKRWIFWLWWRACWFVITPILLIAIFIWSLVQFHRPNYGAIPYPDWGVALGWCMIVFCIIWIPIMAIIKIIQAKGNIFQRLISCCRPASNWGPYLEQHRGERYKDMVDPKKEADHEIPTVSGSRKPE
Kind of assay: SLC6A14 transport function in X. laevis oocytes (two-microelectrode voltage-clamp). It is filed as cell-based. The settings on record: 1 mM α-MT; currents induced by 100 M (so in the source) leucine, glutamine or arginine. The source says: FIGS. 3A and 3B. Natactivation kinetics of SLC6A14-mediated transport of leucine (FIG. 3A) and arginine and glutamine (FIG. 3B). Human SLC6A14 was expressed heterologously in X. laevis oocytes by microinjection of cRNA. Four days following injection, oocytes were used for electrophysiological studies using the two-microelectrode voltage-clamp method. […] Since the expression levels varied from oocyte to oocyte resulting in varying magnitudes of amino acid-induced currents, the currents were normalized by taking the magnitude of the currents induced at 100 mM Na^+ as 1 in each oocyte and calculating the magnitude of the currents induced at other concentrations of Na^+ as a fraction of this maximal current. The experiments were done with three different oocytes and the results are given as means±SE. Insets, Hill plots.
FIG. 4. Cl^−-activation kinetics of SLC6A14-mediated transport of leucine, arginine, and glutamine. […] The experiments were done with three different oocytes and the results are given as means±SE.
FIGS. 5A to 5C. Blockade of SLC6A14-mediated transport of leucine (FIG. 5A), glutamine (FIG. 5B), and arginine (FIG. 5C) by α-MT. Oocytes injected with human SLC6A14 cRNA were perifused with 100 µM leucine, 100 μM glutamine, or 100 μM arginine under varying experimental conditions as indicated.
Analysis of SLC6A14 transport function in X. laevis oocytes. SLC6A14-mediated transport of leucine, glutamine, and arginine and its blockade by α-MT were studied using the X. laevis oocyte heterologous expression system as described previously (Hatanaka et al., 2001, J Clin Invest; 107:1035-1043; and Karunakaran et al., 2008, Biochem J; 414:343-355). Human cloned SLC6A14 cDNA was used in these studies.

Assay [2] concerns MCF7 cells. Kind of assay: Xenograft in nude mice with estrogen pellets, tumor growth. It is filed as in vivo, Balb/c nude mice. The settings on record: MCF7 (ER-positive) in the presence of estrogen administration, α-MT in drinking water 2 mg/ml. How it is done:
FIGS. 10A to 10D. In vivo efficacy of α-MT in the treatment of ER-positive breast cancer. ZR75.1 (FIG. 10A), MCF7 (FIG. 10B), and MB-231 (FIG. 10C) cells were injected subcutaneously (sc) into Balb/c nude mice (10×10^6 cells per injection site). For MCF7 cells, slow-releasing estrogen pellets were implanted to support the tumor growth. For each cell line, the control group received water with sucrose and the treatment group received α-MT (2 mg/ml) in water with sucrose. Tumor size was measured periodically. NS, not statistically significant (p>0.05); *, p<0.005; two-tailed unpaired Student's t test. In FIG. 10D, Balb/c nude mice were divided into two groups; the control group received water with sucrose and the treatment group received α-MT (2 mg/ml) in water with sucrose for 2 weeks. Mice were then bled and α-MT in plasma was determined by HPLC. Xenograft in nude mice. Human breast cancer cells (ZR75.1, MCF7, and MB231) were injected s.c. close to the lower mammary gland on the right side of Balb/c nude mice (10×10^6 cells per injection site). Only for MCF7 cells, slow-releasing estrogen pellets were implanted to support the tumor growth. Implantation of estrogen pellets was done as follows. […] Tumor size in control and treatment groups was measured periodically by caliper and […] was calculated using the formula (width^2×length)/2.

Molecules are shown by their SMILES.

Turning to `CC(N)(Cc1c[nH]c2ccccc12)C(=O)O` (racemic) [α-MT, α-methyl-DL-tryptophan], in assay [1], the “blockade of amino acid-induced inward currents” value is listed as “blocked”. For the same compound, the “tumor growth in xenograft” value in assay [2] is reported as “did not affect the growth”.

These data come from patent publication US20140024663A1, “ATB(0,+) AMINO ACID TRANSPORTER AS A DRUG TARGET FOR TREATMENT OF ESTROGEN RECEPTOR-POSITIVE BREAST CANCER” (GEORGIA HEALTH SCIENCES UNIVERSITY RESEARCH INSTITUTE, INC., priority 2012, published 2014).
